Measurements: patent US20220281846A1, “COMPOUNDS AND COMPOSITIONS FOR THE TREATMENT OF RESPIRATORY DISEASES” (THE UNIVERSITY OF MELBOURNE, priority 2018, published 2022)
Read-outs that look alike come from different tables or passages of the source.

Legend:
[1] = In vitro metabolic stability, human liver microsomes; format: in vitro ADME; conditions: for Predicted CLblood: well stirred model
Experimental: Human Microsomal Stability of Compounds of the Invention
In Vitro Metabolic Stability
Incubation: The metabolic stability assay was performed by incubating each test compound in human liver microsomes at 37° C. and a protein concentration of 0.4 mg/mL. The metabolic reaction was initiated by the addition of an NADPH-regenerating system and quenched at various time points over a 60 minute incubation period by the addition of acetonitrile containing diazepam as internal standard. Control samples (containing no NADPH) were included (and quenched at 2, 30 and 60 minutes) to monitor for potential degradation in the absence of cofactor. The human liver microsomes used in this experiment were supplied by XenoTech, lot #1410230. Microsomal incubations were performed at a substrate concentration of 1 μM. Data analysis: Species scaling factors from Ring et al. (2011) JPharmSci, 100:4090-4110 were used to convert the in vitro CLint (μL/min/mg) to an in vivo CLint(mL/min/kg). Hepatic blood clearance and the corresponding hepatic extraction ratio (EH) were calculated using the well stirred model of hepatic extraction in each species, according to the “in vitro T1/2” approach described in Obach (1999) DrugMetab. Dispos. 27:1350-1359. The EH was then used to classify compounds as low(<0.3), intermediate (0.3-0.7), high (0.7-0.95) or very high (>0.95) extraction compounds. Predicted in vivo clearance values have not been corrected for microsomal or plasma protein binding. Species scaling calculations are based on two assumptions: 1) NADPH-dependent oxidative metabolism predominates over other metabolic routes (i.e. direct conjugative metabolism, reduction, hydrolysis, etc.), and; 2) rates of metabolism and enzyme activities in vitro are truly reflective of those that exist in vivo. If significant non-NADPH-mediated degradation is observed in microsome control samples, then assumption (1) is invalid and predicted clearance parameters are therefore not reported.

[2] = format: in vitro ADME, mouse
Experimental: Incubation: The metabolic stability assay was performed by incubating each test compound in human liver microsomes at 37° C. and a protein concentration of 0.4 mg/mL. The metabolic reaction was initiated by the addition of an NADPH-regenerating system and quenched at various time points over a 60 minute incubation period by the addition of acetonitrile containing diazepam as internal standard. Control samples (containing no NADPH) were included (and quenched at 2, 30 and 60 minutes) to monitor for potential degradation in the absence of cofactor. The human liver microsomes used in this experiment were supplied by XenoTech, lot #1410230. Microsomal incubations were performed at a substrate concentration of 1 μM. Data analysis: Species scaling factors from Ring et al. (2011) JPharmSci, 100:4090-4110 were used to convert the in vitro CLint (μL/min/mg) to an in vivo CLint(mL/min/kg). Hepatic blood clearance and the corresponding hepatic extraction ratio (EH) were calculated using the well stirred model of hepatic extraction in each species, according to the “in vitro T1/2” approach described in Obach (1999) DrugMetab. Dispos. 27:1350-1359. The EH was then used to classify compounds as low(<0.3), intermediate (0.3-0.7), high (0.7-0.95) or very high (>0.95) extraction compounds. Predicted in vivo clearance values have not been corrected for microsomal or plasma protein binding. Species scaling calculations are based on two assumptions: 1) NADPH-dependent oxidative metabolism predominates over other metabolic routes (i.e. direct conjugative metabolism, reduction, hydrolysis, etc.), and; 2) rates of metabolism and enzyme activities in vitro are truly reflective of those that exist in vivo. […] [table]

[3] = target: T1, human recombinant Casein kinase 18 (CK1δ) (Homo sapiens, UniProt P48730); assay: Kinase inhibition assay (HotSpot, Reaction Biology Corp), CK1δ; format: biochemical; conditions: 10 μM ATP, 10-dose IC50 mode; read-out: Compound IC50 (M) CK1δ
T1 construct: purchased Reaction Biology Corp
T1 sequence (P48730 whole entry): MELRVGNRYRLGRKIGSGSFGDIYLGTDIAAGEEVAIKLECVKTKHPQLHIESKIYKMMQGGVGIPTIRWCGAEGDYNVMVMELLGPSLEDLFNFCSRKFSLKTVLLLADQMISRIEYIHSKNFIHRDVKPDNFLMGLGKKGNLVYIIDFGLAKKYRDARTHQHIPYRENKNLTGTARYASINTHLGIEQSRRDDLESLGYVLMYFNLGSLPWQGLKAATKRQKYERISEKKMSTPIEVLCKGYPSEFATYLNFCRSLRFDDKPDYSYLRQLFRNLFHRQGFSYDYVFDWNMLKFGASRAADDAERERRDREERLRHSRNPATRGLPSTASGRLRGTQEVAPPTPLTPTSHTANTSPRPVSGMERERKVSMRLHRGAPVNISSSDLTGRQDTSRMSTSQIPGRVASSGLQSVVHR

ERBB4/HER4 = target: T2, ERBB4/HER4 (Homo sapiens, UniProt Q15303); assay: Kinase inhibition assay (HotSpot), ERBB4/HER4; format: biochemical; conditions: 10 μM ATP, 10-dose IC50 mode; read-out: Compound IC50 (M) ERBB4/HER4
T2 construct: purchased Reaction Biology Corp
T2 sequence (Q15303 26-1308): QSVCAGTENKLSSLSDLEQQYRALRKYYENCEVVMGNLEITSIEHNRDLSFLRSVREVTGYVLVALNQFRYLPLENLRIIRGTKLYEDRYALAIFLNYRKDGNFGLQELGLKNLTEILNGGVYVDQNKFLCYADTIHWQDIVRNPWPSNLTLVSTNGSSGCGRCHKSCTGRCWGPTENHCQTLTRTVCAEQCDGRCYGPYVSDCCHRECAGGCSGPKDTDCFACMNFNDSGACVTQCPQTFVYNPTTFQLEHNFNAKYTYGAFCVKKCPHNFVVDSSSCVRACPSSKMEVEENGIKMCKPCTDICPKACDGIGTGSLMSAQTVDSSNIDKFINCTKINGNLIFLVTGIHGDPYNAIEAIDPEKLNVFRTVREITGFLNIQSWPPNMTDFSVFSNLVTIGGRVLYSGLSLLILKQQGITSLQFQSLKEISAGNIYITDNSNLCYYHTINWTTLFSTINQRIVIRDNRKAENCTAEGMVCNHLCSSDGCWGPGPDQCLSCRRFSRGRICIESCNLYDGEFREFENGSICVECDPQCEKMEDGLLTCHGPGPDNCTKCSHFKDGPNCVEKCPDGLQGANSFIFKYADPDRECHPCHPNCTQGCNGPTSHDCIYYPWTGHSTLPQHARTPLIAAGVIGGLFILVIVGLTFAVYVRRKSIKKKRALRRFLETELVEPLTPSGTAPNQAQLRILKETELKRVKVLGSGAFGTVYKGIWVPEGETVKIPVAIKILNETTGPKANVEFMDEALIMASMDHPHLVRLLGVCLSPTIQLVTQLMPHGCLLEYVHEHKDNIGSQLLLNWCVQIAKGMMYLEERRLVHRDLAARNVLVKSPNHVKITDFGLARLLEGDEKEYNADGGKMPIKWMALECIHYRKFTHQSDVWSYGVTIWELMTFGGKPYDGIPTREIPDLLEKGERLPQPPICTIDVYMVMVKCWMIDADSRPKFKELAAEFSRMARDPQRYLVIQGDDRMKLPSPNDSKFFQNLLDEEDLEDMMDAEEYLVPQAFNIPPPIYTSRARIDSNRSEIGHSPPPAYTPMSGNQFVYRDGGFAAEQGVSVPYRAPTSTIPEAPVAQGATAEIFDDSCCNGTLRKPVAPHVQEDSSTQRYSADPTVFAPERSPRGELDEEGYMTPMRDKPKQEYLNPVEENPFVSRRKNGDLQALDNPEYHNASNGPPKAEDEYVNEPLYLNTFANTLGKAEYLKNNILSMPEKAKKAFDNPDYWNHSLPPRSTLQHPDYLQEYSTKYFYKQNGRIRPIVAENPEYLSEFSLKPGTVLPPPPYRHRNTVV

[4] = system: interleukin-1α (IL1α)-mediated cytokine production by the lung adenocarcinoma cell line A549; assay: Cellular assay (A549) against IL1α-mediated cytokine production; format: cell-based, human; conditions: serum starved A549 cells, compound 30 min prior to IL-1α (1 ng/ml) for 24 h, ELISA
Experimental: Cellular Assay (A549 Human Lung Adenocarcinoma Cells) Assessing Effect of ZH3-138, ZH3-126 and PF670462 Against IL1α-Mediated Cytokine Production
The anti-inflammatory potential of selected compounds was examined by establishing the effects on interleukin-1α (IL1α)-mediated cytokine production by the lung adenocarcinoma cell line A549. Serum starved A549 cells were treated with various concentrations of the relevant CK1δ inhibitor (PF670462, ZH3-126 and ZH3-138) 30 min prior to IL-1α (1 ng/ml) for 24 h. Supernatant was collected and concentration of IL-6, IL-8 and GM-CSF was detected by ELISA. Data are presented as mean±SEM across three replicates in FIG. 7 (A: IL-6; B: IL-8 and C: GM-CSF).

MINK/MINK1 = target: T3, MINK/MINK1 (Homo sapiens, UniProt Q8N4C8); assay: Kinase inhibition assay (HotSpot), MINK/MINK1; format: biochemical; conditions: 10 μM ATP, 10-dose IC50 mode; read-out: Compound IC50 (M) MINK/MINK1
T3 construct: purchased Reaction Biology Corp
T3 sequence (Q8N4C8 whole entry): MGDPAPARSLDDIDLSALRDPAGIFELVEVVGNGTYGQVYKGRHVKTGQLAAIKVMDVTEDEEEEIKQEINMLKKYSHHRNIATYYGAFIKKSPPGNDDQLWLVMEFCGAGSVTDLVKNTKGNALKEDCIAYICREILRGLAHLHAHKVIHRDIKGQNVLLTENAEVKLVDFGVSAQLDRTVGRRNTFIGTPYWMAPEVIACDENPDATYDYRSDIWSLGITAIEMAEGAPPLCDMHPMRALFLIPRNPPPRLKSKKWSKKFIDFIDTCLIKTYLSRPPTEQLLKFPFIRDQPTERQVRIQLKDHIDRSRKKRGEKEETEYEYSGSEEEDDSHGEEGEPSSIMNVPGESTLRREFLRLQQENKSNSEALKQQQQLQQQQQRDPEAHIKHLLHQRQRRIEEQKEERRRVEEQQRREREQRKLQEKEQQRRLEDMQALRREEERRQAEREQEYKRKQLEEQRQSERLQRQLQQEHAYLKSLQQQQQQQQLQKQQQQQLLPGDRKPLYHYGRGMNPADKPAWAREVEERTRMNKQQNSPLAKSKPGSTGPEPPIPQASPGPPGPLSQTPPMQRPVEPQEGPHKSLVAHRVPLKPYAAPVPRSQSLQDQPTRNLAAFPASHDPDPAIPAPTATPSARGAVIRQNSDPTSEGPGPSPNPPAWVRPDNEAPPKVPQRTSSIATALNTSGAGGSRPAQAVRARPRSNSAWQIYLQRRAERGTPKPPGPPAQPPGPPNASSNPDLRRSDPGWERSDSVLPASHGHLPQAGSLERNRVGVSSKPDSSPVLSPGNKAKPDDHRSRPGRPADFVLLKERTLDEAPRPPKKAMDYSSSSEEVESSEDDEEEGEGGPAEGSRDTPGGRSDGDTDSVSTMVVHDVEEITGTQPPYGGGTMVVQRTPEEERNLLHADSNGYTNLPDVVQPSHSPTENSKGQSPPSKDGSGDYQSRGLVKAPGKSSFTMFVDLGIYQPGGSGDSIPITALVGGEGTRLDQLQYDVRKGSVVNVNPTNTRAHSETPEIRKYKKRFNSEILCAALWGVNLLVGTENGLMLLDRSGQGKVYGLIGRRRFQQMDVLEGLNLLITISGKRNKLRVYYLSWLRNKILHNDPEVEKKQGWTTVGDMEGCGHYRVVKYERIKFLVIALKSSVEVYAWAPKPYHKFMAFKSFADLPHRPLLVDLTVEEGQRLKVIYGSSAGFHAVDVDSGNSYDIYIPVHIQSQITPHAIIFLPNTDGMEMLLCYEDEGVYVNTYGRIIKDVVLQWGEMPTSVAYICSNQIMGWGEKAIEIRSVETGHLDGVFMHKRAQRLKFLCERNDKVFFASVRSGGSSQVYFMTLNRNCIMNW

[5] = human liver microsomes, 1 μM, 0.4 mg/mL protein, 37° C.
[6] = scaled from human liver microsomes

| Predicted EH (hepatic extraction ratio) ([1]; human liver microsomes) | CLint, in vitro ([1]; human liver microsomes, 1 μM) | T1/2 [1, 5] | Predicted CLint, in vivo [1, 6] | Predicted CLblood [1, 6] | Predicted CLblood [2] | Predicted CLint, in vivo [2] | Predicted EH (hepatic extraction ratio) [2] | CLint, in vitro ([2]; mouse, microsomes) | T1/2 ([2]; mouse, microsomes) | IC50 [3] | IC50 (ERBB4/HER4) | microsomal CLint at 1 μM ([1]; human liver microsomes, 1 μM) | half-life at 1 μM [1, 5] | CLint scaled at 1 μM ([1]; scaled from human liver microsomes, read-out: Predicted CLint, in vivo) | IC50 (MINK/MINK1) | SMILES | supernatant concentrations of inflammatory biomarkers (IL-6, IL-8, GM-CSF) [4] |
| --- | --- | --- | --- | --- | --- | --- | --- | --- | --- | --- | --- | --- | --- | --- | --- | --- | --- |
| 0.88 | 192 μL/min/mg protein | 9 min | 158 mL/min/kg | 18 mL/min/kg | 108 mL/min/kg | 1105 mL/min/kg | 0.90 | 428 μL/min/mg protein | 4 min |  |  |  |  |  |  | Nc1nccc(-c2c(-c3ccc(F)cc3)ncn2C2CCCCC2)n1 [PF670462, reference compound] |  |
| <0.22 |  |  |  | <5 mL/min/kg |  |  |  |  |  | 9.32e-09 M | 9.98e-06 M | < 7 µL/min/mg | > 255 min | < 6 mL/min/kg | 1.15e-06 M | Nc1nccc(-c2c(-c3ccc(F)cc3)ncn2C2CCC(F)(F)CC2)n1 [ZH3-138, 4-(1-(4,4-Difluorocyclohexyl)-4-(4-fluorophenyl)-1H-imidazol-5-yl)pyrimidin-2-amine] | ability to reduce supernatant concentrations of other inflammatory biomarkers |
